Results as given in ChEMBL document CHEMBL1201862, “PubChem BioAssay data set” (2004).
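Cells were grown in 96-well plates and exposed to each compound for 48 hours at five concentrations; endpoints were interpolated linearly between bracketing concentrations, or set to the highest concentration if not reached. GI50 is the concentration that inhibits growth by half.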 Calls of active or inactive are those of the source. Rule as the data show it: active = GI50 up to about 1.1 µM and inactive = higher.

Legend:
Experiment in all cases: NCI tumour cell line growth inhibition, 48 h
CAKI-1 = system: CAKI-1
CCRF-CEM = system: CCRF-CEM
HCT-116 = system: HCT-116
HOP-62 = system: HOP-62
IGROV-1 = system: IGROV-1
K562 = system: K562
M14 = system: M14
MDA-MB-435 = system: MDA-MB-435
NCI-H226 = system: NCI-H226
NCI-H23 = system: NCI-H23
NCI-H460 = system: NCI-H460
NCI/ADR-RES = system: NCI/ADR-RES
PC-3 = system: PC-3
RPMI-8226 = system: RPMI-8226
RXF 393 = system: RXF 393
SF-295 = system: SF-295
SK-MEL-2 = system: SK-MEL-2
SK-OV-3 = system: SK-OV-3
SN12C = system: SN12C
TK-10 = system: TK-10

SMILES	GI50 (CAKI-1)	GI50 (CCRF-CEM)	GI50 (HCT-116)	GI50 (HOP-62)	GI50 (IGROV-1)	GI50 (K562)	GI50 (M14)	GI50 (MDA-MB-435)	GI50 (NCI-H226)	GI50 (NCI-H23)	GI50 (NCI-H460)	GI50 (NCI/ADR-RES)	GI50 (PC-3)	GI50 (RPMI-8226)	GI50 (RXF 393)	GI50 (SF-295)	GI50 (SK-MEL-2)	GI50 (SK-OV-3)	GI50 (SN12C)	GI50 (TK-10)
CC1(C)C(C#N)=[N+]([O-])C(C)(C)N1O	> 100 µM (inactive)	33.5 µM (inactive)	> 100 µM (inactive)	> 100 µM (inactive)	> 100 µM (inactive)	> 100 µM (inactive)	> 100 µM (inactive)	37.7 µM (inactive)	> 100 µM (inactive)	> 100 µM (inactive)	> 100 µM (inactive)	> 100 µM (inactive)	> 100 µM (inactive)	> 100 µM (inactive)	> 100 µM (inactive)	> 100 µM (inactive)	> 100 µM (inactive)	> 100 µM (inactive)	> 100 µM (inactive)	> 100 µM (inactive)
CCCCCCCCCCCC(=O)OC[C@@H](C[As](=O)(O)O)OC(=O)CCCCCCCCCCC	11.1 µM (inactive)	16.2 µM (inactive)	8.45 µM (inactive)	9.95 µM (inactive)	1.85 µM (inactive)	5.75 µM (inactive)	2.49 µM (inactive)	3.85 µM (inactive)	16.4 µM (inactive)	5.69 µM (inactive)	3.61 µM (inactive)	17.3 µM (inactive)	2.43 µM (inactive)	6.87 µM (inactive)	2.43 µM (inactive)	13.2 µM (inactive)	2.69 µM (inactive)	12.4 µM (inactive)	7 µM (inactive)	11.6 µM (inactive)
OC(c1ccccc1)c1c(-c2ccccc2)oc(-c2ccccc2)c1C(O)c1ccccc1 (stereo not given)	15.2 µM (inactive)	3.73 µM (inactive)	5.65 µM (inactive)	14.4 µM (inactive)	14 µM (inactive)	3.58 µM (inactive)	10 µM (inactive)	8.04 µM (inactive)	7.4 µM (inactive)	9.06 µM (inactive)	8.15 µM (inactive)	9.02 µM (inactive)	9.33 µM (inactive)	2.72 µM (inactive)	6.5 µM (inactive)	15.1 µM (inactive)	14.2 µM (inactive)	14.7 µM (inactive)	6.22 µM (inactive)	15.6 µM (inactive)
CC(C)(C)OC(=O)CCCCCNC(=O)CCCCCNC(=O)CCC(CN(CC(=O)OCc1ccccc1)CC(=O)OCc1ccccc1)N(CC(=O)OCc1ccccc1)CC(=O)OCc1ccccc1 (stereo not given)	43.8 µM (inactive)	31.4 µM (inactive)	> 100 µM (inactive)	> 100 µM (inactive)	> 100 µM (inactive)	25.2 µM (inactive)	> 100 µM (inactive)	> 100 µM (inactive)	> 100 µM (inactive)	68.1 µM (inactive)	14.6 µM (inactive)	> 100 µM (inactive)	> 100 µM (inactive)	11.8 µM (inactive)	> 100 µM (inactive)	> 100 µM (inactive)	> 100 µM (inactive)	> 100 µM (inactive)	> 100 µM (inactive)	> 100 µM (inactive)
O=c1[nH]c(C23CC4CC(CC(C4)C2)C3)cc2c1c(=O)oc1ccccc12	1.86 µM (inactive)	12.5 µM (inactive)	3.06 µM (inactive)	2.7 µM (inactive)	2.32 µM (inactive)	4.07 µM (inactive)	8.65 µM (inactive)	13.4 µM (inactive)	2.19 µM (inactive)	9.57 µM (inactive)	2.62 µM (inactive)	3.96 µM (inactive)	3.27 µM (inactive)	3.08 µM (inactive)	2.35 µM (inactive)	3.71 µM (inactive)	13.8 µM (inactive)	3.25 µM (inactive)	9.18 µM (inactive)	3.43 µM (inactive)
O=c1c(F)cn2c(=O)n1CCCCCCCn1c(=O)c(F)cn(c1=O)CCCCCCC2	78.3 µM (inactive)	76 µM (inactive)	73.5 µM (inactive)	46.6 µM (inactive)	> 100 µM (inactive)	> 100 µM (inactive)	36.1 µM (inactive)	64.9 µM (inactive)	54.5 µM (inactive)	> 100 µM (inactive)	> 100 µM (inactive)	69 µM (inactive)	> 100 µM (inactive)	> 100 µM (inactive)	39.1 µM (inactive)	> 100 µM (inactive)	> 100 µM (inactive)	> 100 µM (inactive)	> 100 µM (inactive)	90.2 µM (inactive)
Cc1cc(N(CCC#N)CCC#N)ccc1C(=N/NC(=O)c1cc(Cl)ccc1O)/N=N/c1cccc([N+](=O)[O-])c1	27 µM (inactive)	5.68 µM (inactive)	22.2 µM (inactive)	24.2 µM (inactive)	11.3 µM (inactive)	22 µM (inactive)	30.4 µM (inactive)	35.4 µM (inactive)	25.1 µM (inactive)	22.6 µM (inactive)	25 µM (inactive)	23 µM (inactive)	22.1 µM (inactive)	12.4 µM (inactive)	22.2 µM (inactive)	35.9 µM (inactive)	21.7 µM (inactive)	34 µM (inactive)	28.3 µM (inactive)	27.2 µM (inactive)
C=C1C(=O)OC2CC(C)C3CC(O)OC(OCC)C3(C)CC12 (stereo not given)	17.8 µM (inactive)	6.46 µM (inactive)	11.9 µM (inactive)	20.9 µM (inactive)	19.3 µM (inactive)	11.8 µM (inactive)	14.8 µM (inactive)	18 µM (inactive)	25.3 µM (inactive)	17.1 µM (inactive)	18.6 µM (inactive)	16.7 µM (inactive)	19.9 µM (inactive)	11.4 µM (inactive)	14.8 µM (inactive)	26.6 µM (inactive)	15.3 µM (inactive)	27.5 µM (inactive)	15.8 µM (inactive)	22 µM (inactive)
CN(C)c1ccc(/C=C(\NC(=O)c2ccccc2)C2=NC(CCC(=O)O)C(=O)O2)cc1 (stereo not given)	> 50 µM (inactive)	> 43.9 µM (inactive)	> 50 µM (inactive)	15.9 µM (inactive)	> 50 µM (inactive)	> 50 µM (inactive)	> 50 µM (inactive)	> 50 µM (inactive)	> 50 µM (inactive)	> 50 µM (inactive)	> 50 µM (inactive)	49 µM (inactive)	> 50 µM (inactive)	35.9 µM (inactive)	> 50 µM (inactive)	> 50 µM (inactive)	> 50 µM (inactive)	> 50 µM (inactive)	> 50 µM (inactive)	> 50 µM (inactive)
Cc1cc(C)nc(NS(=O)(=O)c2ccc(NC(=O)c3ccc4nc5ccccc5c(Nc5ccc(S(=O)(=O)Nc6nc(C)cc(C)n6)cc5)c4c3)cc2)n1	> 100 µM (inactive)	36.6 µM (inactive)	57 µM (inactive)	> 100 µM (inactive)	52.5 µM (inactive)	38 µM (inactive)	> 100 µM (inactive)	> 100 µM (inactive)	> 100 µM (inactive)	34 µM (inactive)	88.5 µM (inactive)	> 100 µM (inactive)	59.7 µM (inactive)	37.2 µM (inactive)	34.9 µM (inactive)	> 100 µM (inactive)	36.2 µM (inactive)	59.2 µM (inactive)	46.5 µM (inactive)	> 100 µM (inactive)
Clc1ccc(Cl)c(/N=N/c2cc3c4c(c2)CCCN4CCC3)c1	> 10 µM (inactive)	> 10 µM (inactive)	> 10 µM (inactive)	> 10 µM (inactive)	> 10 µM (inactive)	> 10 µM (inactive)	> 10 µM (inactive)	> 10 µM (inactive)	> 10 µM (inactive)	> 10 µM (inactive)	> 10 µM (inactive)	> 10 µM (inactive)	> 10 µM (inactive)	> 10 µM (inactive)	> 10 µM (inactive)	> 10 µM (inactive)	> 10 µM (inactive)	> 10 µM (inactive)	> 10 µM (inactive)	> 10 µM (inactive)
C[N+](C)([O-])CCCNc1c2ccccc2nc2cccc([N+](=O)[O-])c12	1.72 µM (inactive)	0.249 µM (active)	0.228 µM (active)	0.385 µM (active)	0.259 µM (active)	0.253 µM (active)	0.258 µM (active)	0.226 µM (active)	0.313 µM (active)	0.156 µM (active)	0.142 µM (active)	8.2 µM (inactive)	0.219 µM (active)	0.313 µM (active)	0.163 µM (active)	0.592 µM (active)	0.214 µM (active)	0.631 µM (active)	0.265 µM (active)	0.982 µM (active)
CC(=O)OCC1=C(C)C[C@H]([C@@H](COC(C)=O)C2CCC3C4C[C@H]5O[C@]56CC=CC(=O)[C@]6(C)C4CC[C@@]32C)OC1=O (stereo not given in full)	0.671 µM (active)	0.0191 µM (active)	0.097 µM (active)	0.634 µM (active)	0.184 µM (active)	0.0106 µM (active)	0.188 µM (active)	0.153 µM (active)	0.598 µM (active)	0.37 µM (active)	0.929 µM (active)	0.185 µM (active)	0.417 µM (active)	0.0393 µM (active)	0.369 µM (active)	1.19 µM (inactive)	0.716 µM (active)	1.79 µM (inactive)	0.444 µM (active)	0.993 µM (active)
